Source: PubChem BioAssay AID248 (DTP/NCI, 2004)
Several values for one entry are separate records, joined by “and”; a condition that tells them apart may be missing. Identical values can stand only once. Inconclusive results and toxic doses are left out. Rule as the data show it: active = T/C of 150% or more; inactive = T/C below 125%.

Test system: L1210 leukemia ip in BDF1 mice, survival T/C
Assay: NCI In Vivo Anticancer Drug Screen. Data for tumor model L1210 Leukemia (intraperitoneal) in B6D2F1 (BDF1) mice
Conditions: endpoint: mean survival time, higher = longer survival
Protocol: The antitumor activity of compounds was measured in mice bearing transplantable tumors. Survival or tumor size were measured and the results are expressed as the measurement made in the treated group (T) divided by the measurement made in the vehicle treated control group (C). The tumor model used in this assay is L1210 Leukemia (intraperitoneal) in B6D2F1 (BDF1) mice

[1] = dose: 100.0 mg/kg/injection, schedule: Q01DX009 (ip), vehicle: Klucel (hydroxypropylcellulose) (HPC)
[2] = dose: 100.0 mg/kg/injection, schedule: Q04DX003 (ip), vehicle: Klucel (hydroxypropylcellulose) (HPC)
[3] = dose: 200.0 mg/kg/injection, schedule: Q01DX009 (ip), vehicle: Klucel (hydroxypropylcellulose) (HPC)
[4] = dose: 200.0 mg/kg/injection, schedule: Q04DX003 (ip), vehicle: Klucel (hydroxypropylcellulose) (HPC)
[5] = dose: 400.0 mg/kg/injection, schedule: Q01DX009 (ip), vehicle: Klucel (hydroxypropylcellulose) (HPC)
[6] = dose: 400.0 mg/kg/injection, schedule: Q04DX003 (ip), vehicle: Klucel (hydroxypropylcellulose) (HPC)
[7] = dose: 75.0 mg/kg/injection, schedule: Q01DX001 (ip), vehicle: saline
[8] = dose: 50.0 mg/kg/injection, schedule: Q04DX003 (ip), vehicle: saline with Tween-80
[9] = dose: 100.0 mg/kg/injection, schedule: Q04DX003 (ip), vehicle: saline with Tween-80
[10] = dose: 200.0 mg/kg/injection, schedule: Q04DX003 (ip), vehicle: saline with Tween-80
[11] = dose: 400.0 mg/kg/injection, schedule: Q04DX003 (ip), vehicle: saline with Tween-80
[12] = dose: 150.0 mg/kg/injection, schedule: Q01DX001 (ip), vehicle: saline
[13] = dose: 100.0 mg/kg/injection, schedule: Q01DX009 (ip), vehicle: saline with Tween-80
[14] = dose: 200.0 mg/kg/injection, schedule: Q01DX009 (ip), vehicle: saline with Tween-80
[15] = dose: 400.0 mg/kg/injection, schedule: Q01DX009 (ip), vehicle: saline with Tween-80
[16] = dose: 100.0 mg/kg/injection, schedule: Q01DX001 (ip), vehicle: saline
[17] = dose: 200.0 mg/kg/injection, schedule: Q01DX001 (ip), vehicle: saline
[18] = dose: 400.0 mg/kg/injection, schedule: Q01DX001 (ip), vehicle: saline
[19] = dose: 50.0 mg/kg/injection, schedule: Q01DX001 (ip), vehicle: saline
[20] = dose: 100.0 mg/kg/injection, schedule: Q01DX009 (ip), vehicle: saline
[21] = dose: 200.0 mg/kg/injection, schedule: Q01DX009 (ip), vehicle: saline
[22] = dose: 100.0 mg/kg/injection, schedule: Q01DX001 (ip), vehicle: other
[23] = dose: 200.0 mg/kg/injection, schedule: Q01DX001 (ip), vehicle: other
[24] = dose: 100.0 mg/kg/injection, schedule: Q04DX002 (ip), vehicle: Klucel (hydroxypropylcellulose) (HPC)
[25] = dose: 200.0 mg/kg/injection, schedule: Q04DX002 (ip), vehicle: Klucel (hydroxypropylcellulose) (HPC)
[26] = dose: 400.0 mg/kg/injection, schedule: Q04DX002 (ip), vehicle: Klucel (hydroxypropylcellulose) (HPC)
[27] = dose: 12.5 mg/kg/injection, schedule: Q01DX009 (ip), vehicle: saline with Tween-80
[28] = dose: 12.5 mg/kg/injection, schedule: Q04DX003 (ip), vehicle: saline with Tween-80
[29] = dose: 25.0 mg/kg/injection, schedule: Q04DX003 (ip), vehicle: saline with Tween-80
[30] = dose: 400.0 mg/kg/injection, schedule: Q01DX001 (ip), vehicle: other

Measured: T/C

COc1ccccc1NC(=O)c1ccc(Cl)cc1Cl
inactive: [1] 98 % of control | [2] 100 % of control | [3] 93 % of control | [4] 96 % of control | [5] 93 % of control | [6] 97 % of control

CCC1CCC(N)CC1 (stereo not given)
inactive: [7] 100 % of control

COc1cccc(C=Nc2ccc(N(C)C)cc2)c1O.COc1cccc(C=Nc2ccc(N(C)C)cc2)c1O.[Co]
inactive: [8] 88 % of control | [9] 88 % of control | [10] 98 % of control

COc1cc(Nc2nc(Cl)ncc2[N+](=O)[O-])cc(OC)c1OC
inactive: [9] 90 % of control | [10] 92 % of control | [11] 92 % of control

NC(N)=NC(N)=Nc1ccccc1CS
inactive: [7] 101 % of control | [12] 102 % of control

CCN/C(C)=C\C(=O)OCC
inactive: [13] 95 % of control | [9] 96 % of control | [14] 111 % of control | [10] 107 % of control | [15] 95 % of control | [11] 105 % of control

Clc1cc(Cl)c2nc(-c3ccc(Cl)c(Cl)c3)cc(C3CO3)c2c1 (stereo not given)
inactive: [16] 94 % of control | [17] 105 % of control | [18] 100 % of control

CC(=O)c1ccc(OCC(O)CN2CCN(c3ccccc3)CC2)c(C)c1 (stereo not given)
inactive: [9] 108 % of control | [10] 108 % of control | [11] 101 % of control

[Cl][Hg][CH2]C1COC([CH2][Hg][Cl])CO1 (stereo not given)
inactive: dose: 25.0 mg/kg/injection, schedule: Q01DX001 (ip), vehicle: carboxymethylcellulose (CMC) 90 % of control | dose: 50.0 mg/kg/injection, schedule: Q01DX001 (ip), vehicle: carboxymethylcellulose (CMC) 92 % of control | dose: 100.0 mg/kg/injection, schedule: Q01DX001 (ip), vehicle: carboxymethylcellulose (CMC) 95 % of control

NC(=S)N/N=C/c1ccc2ccccc2c1
inactive: [19] 107 % of control | [16] 107 % of control | [17] 107 % of control | [18] 116 % of control

Cc1nc(C)c(C(=O)O)cc1C(=O)O
inactive: [20] 104 % of control | [21] 101 % of control | dose: 400.0 mg/kg/injection, schedule: Q01DX009 (ip), vehicle: saline 100 % of control

CC/C(C)=N\NC(=O)c1cccnc1
inactive: [20] 110 % of control | [21] 110 % of control

Oc1ccccc1C=Nc1ccccc1O.[Cu+2]
inactive: [22] 107 % of control | [23] 116 % of control

CC1(C)NC(=O)C(/C=C/c2ccccc2)O1 (stereo not given)
inactive: dose: 25.0 mg/kg/injection, schedule: Q01DX009 (ip), vehicle: Klucel (hydroxypropylcellulose) (HPC) 102 % of control | dose: 25.0 mg/kg/injection, schedule: Q04DX003 (ip), vehicle: Klucel (hydroxypropylcellulose) (HPC) 97 % of control | dose: 50.0 mg/kg/injection, schedule: Q01DX009 (ip), vehicle: Klucel (hydroxypropylcellulose) (HPC) 100 % of control | dose: 50.0 mg/kg/injection, schedule: Q04DX003 (ip), vehicle: Klucel (hydroxypropylcellulose) (HPC) 95 % of control | [1] 89 % of control | [2] 97 % of control | [4] 92 % of control | [6] 101 % of control

NCCCc1c(-c2ccccc2)nc(N)[nH]c1=O
inactive: [19] 108 % of control | [16] 110 % of control | [17] 98 % of control

COc1ccc(Sc2cccc3c2C(C)(O)c2c(Sc4ccc(OC)cc4)cccc2C3(C)O)cc1 (stereo not given)
inactive: [13] 100 % of control | [9] 97 % of control | [14] 92 % of control | [10] 95 % of control | [15] 92 % of control | [11] 93 % of control

Cc1ccc(S(=O)(=O)N/N=C/C=C/C=N/NS(=O)(=O)c2ccc(C)cc2)cc1
inactive: [24] 97 % of control | [25] 103 % of control | [26] 94 % of control

N#C/C(=C\c1ccc(-c2ccccc2)cc1)c1ccc(Cl)cc1
inactive: dose: 3.13 mg/kg/injection, schedule: Q01DX009 (ip), vehicle: saline with Tween-80 98 % of control | dose: 6.25 mg/kg/injection, schedule: Q01DX009 (ip), vehicle: saline with Tween-80 92 % of control | [27] 93 % of control and 87 % of control | [28] 95 % of control | [29] 95 % of control | [8] 93 % of control

O=[N+]([O-])c1ccccc1NC1c2ccccc2Oc2ccccc21
inactive: [2] 96 % of control | [4] 93 % of control | [6] 93 % of control

C=C(C)C1C2OC2C(=O)C2=CCCC(C)C21C (stereo not given)
inactive: dose: 25.0 mg/kg/injection, schedule: Q04DX003 (ip), vehicle: saline 97 % of control | dose: 50.0 mg/kg/injection, schedule: Q04DX003 (ip), vehicle: saline 100 % of control | dose: 100.0 mg/kg/injection, schedule: Q04DX003 (ip), vehicle: saline 100 % of control

N#CCCN(C(=O)Nc1cccc(Cl)c1)C1CCCCC1
inactive: [1] 103 % of control | [3] 90 % of control | [5] 97 % of control

CCOC(=O)Nc1c(O)cccc1N1CCOCC1
inactive: [24] 101 % of control | [25] 101 % of control | [26] 104 % of control

COc1ccc(C2(C=O)CN(C)CN2)cc1 (stereo not given)
inactive: [22] 96 % of control | [23] 107 % of control | [30] 96 % of control

NC(=O)OCCCCCCOC(N)=O
inactive: [9] 90 % of control | [10] 90 % of control | [11] 87 % of control

Cc1cc(C)c2c(c1)C/C2=N/N=C1/Cc2cc(C)cc(C)c21
inactive: dose: 50.0 mg/kg/injection, schedule: Q04DX002 (ip), vehicle: Klucel (hydroxypropylcellulose) (HPC) 120 % of control | [24] 100 % of control | [25] 92 % of control

Cc1cccc(Cl)c1NC(=O)c1cccc([N+](=O)[O-])c1
inactive: [1] 96 % of control | [3] 90 % of control | [5] 93 % of control

COc1cc(CNC2CCCCC2)ccc1O
inactive: [7] 97 % of control | [12] 110 % of control

S=C(N/N=C1\CCCCC1c1ccccc1)Nc1ccccc1 (stereo not given)
inactive: [1] 95 % of control | [3] 90 % of control | [5] 104 % of control

CCC(CC)COCCCN
inactive: [27] 97 % of control | [28] 97 % of control | dose: 25.0 mg/kg/injection, schedule: Q01DX009 (ip), vehicle: saline with Tween-80 98 % of control | [29] 95 % of control | dose: 50.0 mg/kg/injection, schedule: Q01DX009 (ip), vehicle: saline with Tween-80 93 % of control | [8] 94 % of control

CCCNC(=O)Oc1c(C)cccc1C
inactive: dose: 50.0 mg/kg/injection, schedule: Q01DX009 (ip), vehicle: carboxymethylcellulose (CMC) 105 % of control and 107 % of control | [22] 95 % of control | dose: 100.0 mg/kg/injection, schedule: Q01DX009 (ip), vehicle: carboxymethylcellulose (CMC) 96 % of control | [24] 92 % of control | dose: 100.0 mg/kg/injection, schedule: Q04DX002 (ip), vehicle: carboxymethylcellulose (CMC) 103 % of control and 104 % of control | dose: 100.0 mg/kg/injection, schedule: Q04DX003 (ip), vehicle: other 103 % of control | [23] 96 % of control | dose: 200.0 mg/kg/injection, schedule: Q01DX009 (ip), vehicle: carboxymethylcellulose (CMC) 103 % of control | [25] 103 % of control | dose: 200.0 mg/kg/injection, schedule: Q04DX002 (ip), vehicle: carboxymethylcellulose (CMC) 97 % of control and 88 % of control | dose: 200.0 mg/kg/injection, schedule: Q04DX003 (ip), vehicle: other 104 % of control | [30] 102 % of control | dose: 400.0 mg/kg/injection, schedule: Q04DX003 (ip), vehicle: other 109 % of control
